Source: US20020182112A1, “In vivo method for measuring binding of chemical actives to skin or specific constituents of skin” (Unilever Home & Personal Care USA, Division of Conopco, Inc., priority 2001, published 2002)

Molecular target: Bovine Serum Albumim (BSA) (Bos taurus, UniProt P02769)
Assay: Pyranine fluorescence in BSA solution: replacement of pyranine from BSA binding sites by added surfactant
Conditions: for ratio of the fluorescence intensities from the deprotonated and protonated state (509 nm / 426 nm): pyranine 1.0×10^−8 M in 50 mM Hepes buffer pH 6.7, BSA 2.5 mg/ml, surfactant added at weight fraction 4×10^−5; for ratio of the fluorescence intensities 509 nm / 426 nm: no surfactant
Method: Fluorescence spectra of pyranine in solutions and on skin were obtained using a Perkin Elmer LS50B fluorometer. In the case of spectra taken on skin, the fiber optic probe accessory was used.
All spectra were taken at pyranine concentrations of 1.0×10^−8 M in 50 mM Hepes buffer (aqueous buffer solution with pH 6.7). Bovine Serum Albumim (BSA) concentrations were 2.5 mg/ml. Surfactant was added at weight fractions of 4×10^−5.
In order to test the applicability of pyranine fluorescence to monitor the binding of surfactants to proteins, applicants studied the effect of added surfactant on the fluorescence spectrum of aqueous solutions of pyranine and BSA. […] This effect can be explained by the replacement of pyranine molecules bound to BSA by SDS molecules leading to an increased concentration of pyranine in free solution and therefore a relative increase in intensity of the fluorescence from the deprotonated state. The ratio of the fluorescence intensities from the deprotonated and protonated site is a measure of the ability of a surfactant to replace pyranine from BSA binding sites.

Chain of Bovine Serum Albumim (BSA) (P02769 25-607): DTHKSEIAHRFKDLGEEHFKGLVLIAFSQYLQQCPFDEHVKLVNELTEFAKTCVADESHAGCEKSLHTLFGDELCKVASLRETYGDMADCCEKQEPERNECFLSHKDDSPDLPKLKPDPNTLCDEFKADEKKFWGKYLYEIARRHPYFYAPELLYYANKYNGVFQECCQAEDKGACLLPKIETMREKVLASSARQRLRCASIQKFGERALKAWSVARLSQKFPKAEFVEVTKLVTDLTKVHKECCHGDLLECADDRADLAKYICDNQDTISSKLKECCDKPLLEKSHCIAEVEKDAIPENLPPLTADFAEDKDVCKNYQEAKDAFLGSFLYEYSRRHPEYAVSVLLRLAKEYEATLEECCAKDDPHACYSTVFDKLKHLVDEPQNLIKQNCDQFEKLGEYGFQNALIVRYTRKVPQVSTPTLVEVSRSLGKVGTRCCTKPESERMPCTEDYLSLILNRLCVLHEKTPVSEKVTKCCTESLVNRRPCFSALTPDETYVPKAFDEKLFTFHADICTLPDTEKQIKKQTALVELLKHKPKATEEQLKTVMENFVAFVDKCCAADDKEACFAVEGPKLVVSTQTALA

Compound | ratio of the fluorescence intensities from the deprotonated and protonated state (509 nm / 426 nm) | other results
Sodiumlauryl Ether Sulfate | 2.12 | –
O=S(=O)(O)c1cc(O)c2ccc3c(S(=O)(=O)O)cc(S(=O)(=O)O)c4ccc1c2c34 [Pyranine, 8-hydroxyl-1 ,3,6-pyrene-trisulfonic acid] | – | ratio of the fluorescence intensities 509 nm / 426 nm (pyranine 1.0×10^−8 M in 50 mM Hepes buffer pH 6.7, no BSA): 8.03; ratio of the fluorescence intensities 509 nm / 426 nm (pyranine 1.0×10^−8 M in 50 mM Hepes buffer pH 6.7 with BSA 2.5 mg/ml): 1.17
alkylpolyglycoside [APG] | 1.34 | –
CCCCCCCCCCCC(=O)[O-].[Na+] [Sodium Laurate] | 2.13 | –
CCCCCCCCCCCCOS(=O)(=O)[O-].[Na+] [SDS, sodium dodecyl sulphate] | 2.23 | effect of added surfactant on the fluorescence spectrum of pyranine and BSA (FIG. 2) (50 mM Hepes buffer, 2.5 mg/ml BSA, 4×10^−5 weight fraction SDS): significant increase of the relative intensity of the fluorescence from the deprotonated state
Cocamilopropyl Betaine | 1.56 | –
